Earlier results in patent US20140228364A1, “Ophthalmic Compositions Comprising Prostaglandin F2 Alpha Derivatives and Hyaluronic Acid” (priority 2011, published 2014).

Solubility in water, almost insoluble in water:
CC(C)OC(=O)CCC/C=C\C[C@@H]1[C@@H](CC[C@@H](O)CCc2ccccc2)[C@H](O)C[C@@H]1O [Latanoprost, isopropyl-(Z)-7-[(1R,2R,3R,5S)-3,5-dihydroxy-2-[(3R)-3-hydroxy-5-phenylpentyl]cyclopentyl]-5-heptenoate]
CCNC(=O)CCC/C=C\C[C@@H]1[C@@H](/C=C/[C@@H](O)CCc2ccccc2)[C@H](O)C[C@@H]1O [bimatoprost]
CC(C)OC(=O)CCC/C=C\C[C@@H]1[C@@H](/C=C/C(F)(F)COc2ccccc2)[C@H](O)C[C@@H]1O [tafluprost]
CCCCC[C@H](O)/C=C/[C@H]1[C@H](O)CC(=O)[C@H]1C/C=C\CCCC(=O)O [8-isoprostaglandin E2]
CCCCCCCC(=O)CC[C@@H]1[C@@H](C/C=C\CCCC(=O)OC(C)C)[C@@H](O)C[C@H]1O [unoprostone isopropyl, 13,14-dihydro-20-ethyl-15-ketoprostaglandin F2α-isopropylester]
CC(C)OC(=O)CCC/C=C\C[C@@H]1[C@@H](/C=C/[C@@H](O)COc2cccc(C(F)(F)F)c2)[C@H](O)C[C@@H]1O [travoprost, 20-ethyl prostaglandin F2α-(+)-fluprostenol isopropyl ester]
